Among the data in patent US20220089592A1, “IMIDAZO[1,2-A]PYRIDINYL DERIVATIVES AS IRAK4 INHIBITORS” (priority 2019, published 2022) are IC50 values, retold here.

Experiment [1] addresses T1, IRAK4 (Homo sapiens, UniProt Q9NWZ3).
T1 sequence (Q9NWZ3 1-460): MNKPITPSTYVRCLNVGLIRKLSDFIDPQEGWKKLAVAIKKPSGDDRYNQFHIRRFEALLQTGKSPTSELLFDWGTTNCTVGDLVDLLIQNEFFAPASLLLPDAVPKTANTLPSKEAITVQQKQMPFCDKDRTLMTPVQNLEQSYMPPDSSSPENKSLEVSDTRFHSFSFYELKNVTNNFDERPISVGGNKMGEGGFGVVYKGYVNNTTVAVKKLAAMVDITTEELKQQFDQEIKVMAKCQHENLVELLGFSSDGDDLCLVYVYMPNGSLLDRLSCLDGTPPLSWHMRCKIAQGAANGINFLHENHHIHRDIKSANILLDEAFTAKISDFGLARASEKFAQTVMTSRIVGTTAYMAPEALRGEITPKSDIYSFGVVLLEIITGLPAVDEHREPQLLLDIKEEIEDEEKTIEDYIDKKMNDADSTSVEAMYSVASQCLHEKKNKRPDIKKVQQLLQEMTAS
The experiment in a line: 2-hour 10 μM ATP Biochemical Assay (MesoScale Detection format; IRAK4 phosphorylation of biotin labeled IRAK1 activation loop peptide). The note with it: IRAK4 MSD BIOCHEMICAL (10 μM ATP) IC50 (μM), 1 nM IRAK4, 2 hours. In a few lines:
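Kinase reaction run 2 h at 10 μM ATP with biotinylated IRAK1 activation-loop peptide, quenched with EDTA. Phospho-peptide captured on streptavidin MSD plates and detected with anti-phosphothreonine rabbit antibody plus Sulfo-Tag anti-rabbit electrochemiluminescence.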

Experiment [2] has as its target T1, IRAK4. The experiment in a line: 2-hour 1 mM ATP IRAK4 Biochemical assay (as above, but with 100 pM IRAK4 and 1 mM ATP). The following applies: IRAK4 MSD BIOCHEMICAL (1 mM ATP) IC50 (μM), 100 pM IRAK4, 2 hours. In a few lines: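 Run with 100 pM IRAK4 and 1 mM ATP for 2 hours, quenched with EDTA pH 8. Phosphorylated biotinylated peptide captured on streptavidin MSD plates and detected with anti-phosphothreonine antibody plus Sulfo-Tag secondary by electrochemiluminescence.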

Take `CC1(COc2cc3nc(C[C@H]4CCOC4)cn3cc2NC(=O)c2cccc(C(F)(F)F)n2)COC1` (single isomer, unassigned) [Example 165]: the IC50 (in general, the concentration that inhibits the measured activity by half) stood at 0.002 µM at IRAK4 [1] and 0.006 µM at IRAK4 [2].

Turning to `CCOc1cc2nc([C@@H](O)C3CC3)cn2cc1NC(=O)c1cccc(C(F)(F)F)n1` (single isomer, unassigned) [Example 169], the values for the IC50 against IRAK4 [1] and against IRAK4 [2] were 0.003 µM and 0.009 µM, respectively.

Consider `CCOc1cc2nc([C@H](O)C3CC3)cn2cc1NC(=O)c1cccc(C(F)(F)F)n1` (single isomer, unassigned) [Example 170], for which the IC50 against IRAK4 [1] came out at 0.004 µM; on IRAK4 [2] it was 0.012 µM.

Consider `CCOc1cc2nc([C@H]3C[C@@H]3F)cn2cc1NC(=O)c1cccc(C(F)F)n1` (stereo in doubt) [Example 253, 6-(difluoromethyl)-N-(7-ethoxy-2-((1R*,2S*)-2-fluorocyclopropyl)imidazo[1,2-a]pyridin-6-yl)picolinamide], for which the IC50 amounted to 0.002 µM on IRAK4 [1] and 0.005 µM against IRAK4 [2].

Turning to `CCOc1cc2nc([C@@H]3C[C@H]3F)cn2cc1NC(=O)c1cccc(C(F)F)n1` (stereo in doubt) [Example 254, 6-(difluoromethyl)-N-(7-ethoxy-2-((1S*, 2R*)-2-fluorocyclopropyl)imidazo[1,2-a]pyridin-6-yl)picolinamide], the IC50 against IRAK4 [1] was 0.002 µM; on IRAK4 [2], 0.005 µM.

`CCOc1cc2nc(CC)cn2cc1NC(=O)c1cccc(C(F)(F)F)n1` [Example 1, N-(7-ethoxy-2-ethylimidazo[1,2-a]pyridin-6-yl)-6-(trifluoromethyl)picolinamide]: the IC50 on IRAK4 [1] is 0.003 µM; against IRAK4 [2] it was 0.011 µM.

For `CCOc1cc2nc(C3CC3)cn2cc1NC(=O)c1cccc(C(F)(F)F)n1` [Example 2, N-(2-cyclopropyl-7-ethoxyimidazo[1,2-a]pyridin-6-yl)-6-(trifluoromethyl)picolinamide], the half-maximal inhibitory concentration (IC50) on IRAK4 [1] worked out at 0.003 µM; at IRAK4 [2], 0.016 µM.

`CCOc1cc2nc(C3CC3)cn2cc1NC(=O)c1cccc(C(F)F)n1` [Example 3, N-(2-cyclopropyl-7-ethoxyimidazo[1,2-a]pyridin-6-yl)-6-(difluoromethyl)picolinamide]: the values for the IC50 against IRAK4 [1] and against IRAK4 [2] were 0.006 µM and 0.009 µM, respectively.

In the case of `COc1cc2nc(C3CC3)cn2cc1NC(=O)c1cccc(C(F)F)n1` [Example 4, N-(2-cyclopropyl-7-methoxyimidazo[1,2-a]pyridin-6-yl)-6-(difluoromethyl)picolinamide], the IC50 was 0.004 µM at IRAK4 [1] and 0.015 µM on IRAK4 [2].

Regarding `O=C(Nc1cn2cc(C3CC3)nc2cc1OCC1CCC1)c1cccc(C(F)F)n1` [Example 5, N-(7-(cyclobutylmethoxy)-2-cyclopropylimidazo[1,2-a]pyridin-6-yl)-6-(difluoromethyl)picolinamide], the IC50 against IRAK4 [1] and on IRAK4 [2] was 0.003 µM each time.

As for `O=C(Nc1cn2cc(C3CC3)nc2cc1OCc1ccccc1)c1cccc(C(F)F)n1` [Example 9, N-(7-(benzyloxy)-2-cyclopropylimidazo[1,2-a]pyridin-6-yl)-6-(difluoromethyl)picolinamide], the half-inhibitory concentration (IC50) against IRAK4 [1] is 0.005 µM; against IRAK4 [2], 0.01 µM.

As for `CCOc1cc2nc(CCOC)cn2cc1NC(=O)c1cccc(C(F)F)n1` [Example 13, 6-(difluoromethyl)-N-(7-ethoxy-2-(2-methoxyethyl)imidazo[1,2-a]pyridin-6-yl)picolinamide], the 50% inhibitory concentration (IC50) against IRAK4 [1] worked out at 0.002 µM; against IRAK4 [2] it was 0.003 µM.

`CCOc1cc2nc(C(C)(C)CO)cn2cc1NC(=O)c1cccc(C(F)F)n1` [Example 17, 6-(difluoromethyl)-N-(7-ethoxy-2-(1-hydroxy-2-methylpropan-2-yl)imidazo[1,2-a]pyridin-6-yl)picolinamide]: the IC50 on IRAK4 [1] came to 0.005 µM; on IRAK4 [2] it was 0.016 µM.

With `CCOc1cc2nc(CO)cn2cc1NC(=O)c1cccc(C(F)(F)F)n1` [Example 18, N-(7-ethoxy-2-(hydroxymethyl)imidazo[1,2-a]pyridin-6-yl)-6-(trifluoromethyl)picolinamide], the values for the IC50 on IRAK4 [1] and at IRAK4 [2] were 0.004 µM and 0.014 µM, respectively.

As for `CCOc1cc2nc(C(C)(C)O)cn2cc1NC(=O)c1cccc(C(F)(F)F)n1` [Example 19, N-(7-ethoxy-2-(2-hydroxypropan-2-yl)imidazo[1,2-a]pyridin-6-yl)-6-(trifluoromethyl)picolinamide], the IC50 worked out at 0.009 µM against IRAK4 [1] and 0.044 µM on IRAK4 [2].

With `CCOc1cc2nc(CF)cn2cc1NC(=O)c1cccc(C(F)(F)F)n1` [Example 20, N-(7-ethoxy-2-(fluoromethyl)imidazo[1,2-a]pyridin-6-yl)-6-(trifluoromethyl)picolinamide], the IC50 against IRAK4 [1] was found to be 0.003 µM; against IRAK4 [2], 0.006 µM.

`CCOc1cc2nc(CC3CCOC3)cn2cc1NC(=O)c1coc(-c2cnn(C)c2)n1` (stereo not shown) [Example 22, N-(7-ethoxy-2-((tetrahydrofuran-3-yl)methyl)imidazo[1,2-a]pyridin-6-yl)-2-(1-methyl-1H-pyrazol-4-yl)oxazole-4-carboxamide]: the results for the IC50 on IRAK4 [1] and against IRAK4 [2] were 0.001 µM and 0.002 µM, respectively.

With `CCOc1cc2nc(CCCO)cn2cc1NC(=O)c1cccc(C(F)F)n1` [Example 23, 6-(difluoromethyl)-N-(7-ethoxy-2-(3-hydroxypropyl)imidazo[1,2-a]pyridin-6-yl)picolinamide], the IC50 on IRAK4 [1] is 0.001 µM; against IRAK4 [2], 0.002 µM.

As for `O=C(Nc1cn2cc(C3CC3)nc2cc1N1CCN(CC(F)F)CC1)c1cccc(C(F)(F)F)n1` [Example 24, N-(2-cyclopropyl-7-(4-(2,2-difluoroethyl)piperazin-1-yl)imidazo[1,2-a]pyridin-6-yl)-6-(trifluoromethyl)picolinamide], the IC50 at IRAK4 [1] was 0.002 µM; against IRAK4 [2] it was 0.004 µM.

On to `O=C(Nc1cn2cc(C3CC3)nc2cc1OCC1CC1)c1cccc(C(F)F)n1` [Example 25, N-(2-cyclopropyl-7-(cyclopropylmethoxy)imidazo[1,2-a]pyridin-6-yl)-6-(difluoromethyl)picolinamide], for which the half-maximal inhibitory concentration (IC50) on IRAK4 [1] was determined as 0.002 µM; against IRAK4 [2], 0.004 µM.

For the compound `O=C(Nc1cn2cc(C3CC3)nc2cc1OCC(F)(F)F)c1cccc(C(F)F)n1` [Example 26, N-(2-cyclopropyl-7-(2,2,2-trifluoroethoxy)imidazo[1,2-a]pyridin-6-yl)-6-(difluoromethyl)picolinamide], the IC50 at IRAK4 [1] turned out to be 0.003 µM; at IRAK4 [2] it was 0.007 µM.

Take `CCOc1cc2nc(CCC(C)(C)O)cn2cc1NC(=O)c1cccc(C(F)F)n1` [Example 27, 6-(difluoromethyl)-N-(7-ethoxy-2-(3-hydroxy-3-methylbutyl)imidazo[1,2-a]pyridin-6-yl)picolinamide]: the IC50 against IRAK4 [1] and at IRAK4 [2] was 0.001 µM in each case.

For the compound `CCOc1cc2nc(C3CC(F)(F)C3)cn2cc1NC(=O)c1cccc(C(F)(F)F)n1` [Example 33, N-(2-(3,3-difluorocyclobutyl)-7-ethoxyimidazo[1,2-a]pyridin-6-yl)-6-(trifluoromethyl)picolinamide], the IC50 on IRAK4 [1] was found to be 0.003 µM; against IRAK4 [2], 0.011 µM.

As for `CCOc1cc2nc(CC)cn2cc1NC(=O)c1ccn(C(F)F)n1` [Example 44, 1-(difluoromethyl)-N-(7-ethoxy-2-ethylimidazo[1,2-a]pyridin-6-yl)-1H-pyrazole-3-carboxamide], the concentration for half-maximal inhibition (IC50) amounted to 0.012 µM against IRAK4 [1] and 0.027 µM at IRAK4 [2].

For `CCOc1cc2nc(CC)cn2cc1NC(=O)c1ccc2c(n1)CCC2` [Example 49, N-(7-ethoxy-2-ethylimidazo[1,2-a]pyridin-6-yl)-6,7-dihydro-5H-cyclopenta[b]pyridine-2-carboxamide], the concentration for half-maximal inhibition (IC50) stood at 0.006 µM against IRAK4 [1] and 0.019 µM against IRAK4 [2].

`CC1(COc2cc3nc(C4CC4)cn3cc2NC(=O)c2cccc(C(F)F)n2)COC1` [Example 50, N-(2-cyclopropyl-7-((3-methyloxetan-3-yl)methoxy)imidazo[1,2-a]pyridin-6-yl)-6-(difluoromethyl)picolinamide]: the IC50 against IRAK4 [1] came to 0.004 µM; against IRAK4 [2] it was 0.014 µM.

As to `CCOCc1cn2cc(NC(=O)c3cccc(C(F)(F)F)n3)c(OCC)cc2n1` [Example 55, N-(7-ethoxy-2-(ethoxymethyl)imidazo[1,2-a]pyridin-6-yl)-6-(trifluoromethyl)picolinamide], the half-maximal inhibitory concentration (IC50) against IRAK4 [1] came out at 0.003 µM; against IRAK4 [2], 0.015 µM.

As to `CCOc1cc2nc(COC)cn2cc1NC(=O)c1cccc(C(F)(F)F)n1` [Example 56, N-(7-ethoxy-2-(methoxymethyl)imidazo[1,2-a]pyridin-6-yl)-6-(trifluoromethyl)picolinamide], the IC50 came out at 0.005 µM on IRAK4 [1] and 0.014 µM against IRAK4 [2].

In the case of `CCOc1cc2nc(C(F)F)cn2cc1NC(=O)c1cccc(C(F)(F)F)n1` [Example 57, N-(2-(difluoromethyl)-7-ethoxyimidazo[1,2-a]pyridin-6-yl)-6-(trifluoromethyl)picolinamide], the IC50 against IRAK4 [1] came out at 0.003 µM; against IRAK4 [2], 0.008 µM.
